This is an account of results in PubChem BioAssay (NCI).

For orientation: GI50 means the concentration that inhibits growth by half. What is called TGI is the concentration giving total growth inhibition.

Each structure is given as a SMILES string.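 A five-concentration, 48-hour dose response in 96-well plates underlies each endpoint, interpolated linearly between surrounding concentrations. GI50: concentration for 50% inhibition of growth. TGI is the concentration that stops growth completely.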

One assay deals with A498 renal. Description: DTP human tumour cell line panel, 48 h.
With `Nc1nc(SN=Nc2ccc(S(N)(=O)=O)cc2)c2[nH]cnc2n1`, the GI50 was 1.35 µM and the TGI worked out at 7.47 µM.

Take `CN(CCCNC(=O)Cc1ccc2ccc3cccc4ccc1c2c34)CCCNc1cc(-c2ccc3ccccc3c2)nc2ccccc12`: the GI50 was 1.66 µM and the TGI came out at 3.19 µM.

Regarding `COCCOc1cnc2ccn([C@H](C)c3nnc4c(F)cc(-c5cnn(C)c5)cn34)c(=O)c2c1`, the GI50 was 33.1 µM and the TGI was greater than 100 µM.

The molecule `CC(C)CNC(=O)O` displayed a TGI greater than 100 µM.

Consider `C[C@]12CC[C@@H]3c4ccc(O)cc4CC[C@H]3[C@@H]1CC[C@@H]2NS(=O)(=O)c1cccc(F)c1`, for which the GI50 is 2.07 µM and the TGI worked out at 6.68 µM.

Take `CCC(C)(C)c1ccc(OCCCCCCN2CCNCC2)cc1`: the GI50 was 6.82 µM and the TGI came to 24.5 µM.

Take `Cc1cc(S(=O)(=O)N/N=C(\Sc2cc(Cl)c(C)cc2S(N)(=O)=O)c2ccc(Cl)cc2)c(Cl)cc1Cl`: the GI50 is 57.1 µM and the TGI was greater than 100 µM.

Regarding `C1C[OH+]CCNCC[OH+]CC[OH+]CCN1.[Cl-].[Pt+4]`, the GI50 is greater than 100 µM and the TGI was greater than 100 µM.

For the molecule `COc1ccc(C(=O)COc2cccc(/C=C3\Oc4ccc5ccccc5c4C3=O)c2)cc1`, the GI50 is 20.6 µM and the TGI came out at 37.1 µM.

In the case of `COc1ccc(-c2oc3cc(O)c(OC)c(O)c3c(=O)c2OC)cc1O`, the GI50 is 0.21 µM and the TGI worked out at 0.801 µM.

With `Cc1c(C2=C(Br)C(=O)N(C)C2=O)c(=O)n(C)c(=O)n1C`, the TGI was 82.9 µM.

Consider `N#CC(=NCCO)C1=C(O)c2ccccc2C1=O`, for which the TGI was greater than 100 µM.

In the case of `NC(CS/C(Cl)=C/Cl)C(=O)O` (stereo not given), the GI50 was 8.7 µM and the TGI was determined as 33.8 µM.

`Cc1ccc(C2(O)CC(c3ccc([N+](=O)[O-])o3)=NN2C(=O)COc2ccc(Cl)cc2)cc1` (stereo not given) yielded a TGI of 22.2 µM.

With `Cc1cc(N/N=C/c2nc(-c3ccc(Br)cc3)oc2C)c2cc(Br)ccc2n1`, the GI50 was 16.5 µM and the TGI worked out at 53.2 µM.

For `COc1ccc2c(O)cc3c(c2c1)[C@H](CCl)CN3C(=O)c1cc2cc(NC(=O)CCN3CCOCC3)ccc2[se]1`, the GI50 was less than 0.001 µM and the TGI was less than 0.001 µM.

The molecule `COc1cc2c(cc1O)C1Cc3ccc(OC)c(O)c3C(C2)N1C` (stereo not given) came in with a total growth inhibition concentration (TGI) greater than 100 µM.

The next assay deals with HCT-15 colon. Description: DTP human tumour cell line panel, 48 h.
In the case of `Nc1nc(SN=Nc2ccc(S(N)(=O)=O)cc2)c2[nH]cnc2n1`, the GI50 is 0.563 µM and the TGI is greater than 100 µM.

For the molecule `CN(CCCNC(=O)Cc1ccc2ccc3cccc4ccc1c2c34)CCCNc1cc(-c2ccc3ccccc3c2)nc2ccccc12`, the GI50 is 1.52 µM and the TGI worked out at 2.94 µM.

For the molecule `COCCOc1cnc2ccn([C@H](C)c3nnc4c(F)cc(-c5cnn(C)c5)cn34)c(=O)c2c1`, the GI50 is greater than 100 µM and the TGI was greater than 100 µM.

Molecule `CC(C)CNC(=O)O` came in with a TGI greater than 100 µM.

On to `C[C@]12CC[C@@H]3c4ccc(O)cc4CC[C@H]3[C@@H]1CC[C@@H]2NS(=O)(=O)c1cccc(F)c1`, for which the GI50 was 2.8 µM and the total growth inhibition concentration (TGI) was determined as 11.3 µM.

On to `CCC(C)(C)c1ccc(OCCCCCCN2CCNCC2)cc1`, for which the GI50 is 1.66 µM and the TGI is 3.39 µM.

`Cc1cc(S(=O)(=O)N/N=C(\Sc2cc(Cl)c(C)cc2S(N)(=O)=O)c2ccc(Cl)cc2)c(Cl)cc1Cl`: the GI50 is greater than 100 µM and the concentration for total growth inhibition (TGI) is greater than 100 µM.

`C1C[OH+]CCNCC[OH+]CC[OH+]CCN1.[Cl-].[Pt+4]`: the GI50 was greater than 100 µM and the TGI was greater than 100 µM.

As for `COc1ccc(C(=O)COc2cccc(/C=C3\Oc4ccc5ccccc5c4C3=O)c2)cc1`, the GI50 was 2.94 µM and the TGI turned out to be 13.7 µM.

Take `COc1ccc(-c2oc3cc(O)c(OC)c(O)c3c(=O)c2OC)cc1O`: the GI50 was 0.0928 µM and the TGI is greater than 100 µM.

Molecule `Cc1c(C2=C(Br)C(=O)N(C)C2=O)c(=O)n(C)c(=O)n1C` displayed a TGI of 45.2 µM.

As to `N#CC(=NCCO)C1=C(O)c2ccccc2C1=O`, the TGI is greater than 100 µM.

As to `NC(CS/C(Cl)=C/Cl)C(=O)O` (stereo not given), the GI50 was 28.7 µM and the TGI is greater than 100 µM.

In turn, `Cc1ccc(C2(O)CC(c3ccc([N+](=O)[O-])o3)=NN2C(=O)COc2ccc(Cl)cc2)cc1` (stereo not given) gave a TGI of 17.7 µM.

For the molecule `Cc1cc(N/N=C/c2nc(-c3ccc(Br)cc3)oc2C)c2cc(Br)ccc2n1`, the GI50 was 2.88 µM and the TGI was found to be 10.2 µM.

`COc1ccc2c(O)cc3c(c2c1)[C@H](CCl)CN3C(=O)c1cc2cc(NC(=O)CCN3CCOCC3)ccc2[se]1`: the GI50 is less than 0.001 µM.

Turning to `COc1cc2c(cc1O)C1Cc3ccc(OC)c(O)c3C(C2)N1C` (stereo not given), the concentration for total growth inhibition (TGI) was greater than 100 µM.

Another assay concerns K-562 leukemia. Description: DTP human tumour cell line panel, 48 h.
In the case of `Nc1nc(SN=Nc2ccc(S(N)(=O)=O)cc2)c2[nH]cnc2n1`, the GI50 is 0.299 µM and the TGI was greater than 100 µM.

Turning to `COCCOc1cnc2ccn([C@H](C)c3nnc4c(F)cc(-c5cnn(C)c5)cn34)c(=O)c2c1`, the GI50 is greater than 100 µM and the TGI was greater than 100 µM.

For `CC(C)CNC(=O)O`, the TGI was greater than 100 µM.

In the case of `C[C@]12CC[C@@H]3c4ccc(O)cc4CC[C@H]3[C@@H]1CC[C@@H]2NS(=O)(=O)c1cccc(F)c1`, the GI50 is 3.22 µM and the TGI came out at 15.2 µM.

Regarding `CCC(C)(C)c1ccc(OCCCCCCN2CCNCC2)cc1`, the GI50 is 1.7 µM and the TGI was 3.93 µM.

As to `Cc1cc(S(=O)(=O)N/N=C(\Sc2cc(Cl)c(C)cc2S(N)(=O)=O)c2ccc(Cl)cc2)c(Cl)cc1Cl`, the GI50 is 67.7 µM and the TGI was greater than 100 µM.

Take `C1C[OH+]CCNCC[OH+]CC[OH+]CCN1.[Cl-].[Pt+4]`: the GI50 was greater than 100 µM and the TGI is greater than 100 µM.
